Data reported in US11173162B2, “Bicyclic heterocycles as FGFR4 inhibitors” (Incyte Corporation, priority 2015, dated 2021).

Key:
[1] = tested on: FGFR3 enzyme; assay: FGFR Enzymatic Assay (FRET peptide phosphorylation), FGFR3; format: biochemical; settings: IC50 ratio showing FGFR3 selectivity; Table 2A, pre-incubated for 4 hours
Method: (§1) The inhibitor potency of the exemplified compounds was measured in an enzyme assay that measures peptide phosphorylation using FRET measurements to detect product formation. Inhibitors were serially diluted in DMSO and a volume of 0.5 μL was transferred to the wells of a 384-well plate.
(§2) GraphPad prism3 was used to analyze the data.

[2] = molecular target: FGFR4 (Homo sapiens (Human), UniProt P22455); assay: FGFR Enzymatic Assay (FRET peptide phosphorylation), FGFR4; format: biochemical
Method: as §1
The enzymes were purchased from Millipore or Invitrogen.
as §2

[3] = IC50 ratio showing FGFR4 selectivity, Table 2, pre-incubated for 4 hours
[4] = ratio of IC50 data showing FGFR4 selectivity, Table 4, pre-incubated for 5 to 10 minutes

Sequence of FGFR4 (P22455 22-802): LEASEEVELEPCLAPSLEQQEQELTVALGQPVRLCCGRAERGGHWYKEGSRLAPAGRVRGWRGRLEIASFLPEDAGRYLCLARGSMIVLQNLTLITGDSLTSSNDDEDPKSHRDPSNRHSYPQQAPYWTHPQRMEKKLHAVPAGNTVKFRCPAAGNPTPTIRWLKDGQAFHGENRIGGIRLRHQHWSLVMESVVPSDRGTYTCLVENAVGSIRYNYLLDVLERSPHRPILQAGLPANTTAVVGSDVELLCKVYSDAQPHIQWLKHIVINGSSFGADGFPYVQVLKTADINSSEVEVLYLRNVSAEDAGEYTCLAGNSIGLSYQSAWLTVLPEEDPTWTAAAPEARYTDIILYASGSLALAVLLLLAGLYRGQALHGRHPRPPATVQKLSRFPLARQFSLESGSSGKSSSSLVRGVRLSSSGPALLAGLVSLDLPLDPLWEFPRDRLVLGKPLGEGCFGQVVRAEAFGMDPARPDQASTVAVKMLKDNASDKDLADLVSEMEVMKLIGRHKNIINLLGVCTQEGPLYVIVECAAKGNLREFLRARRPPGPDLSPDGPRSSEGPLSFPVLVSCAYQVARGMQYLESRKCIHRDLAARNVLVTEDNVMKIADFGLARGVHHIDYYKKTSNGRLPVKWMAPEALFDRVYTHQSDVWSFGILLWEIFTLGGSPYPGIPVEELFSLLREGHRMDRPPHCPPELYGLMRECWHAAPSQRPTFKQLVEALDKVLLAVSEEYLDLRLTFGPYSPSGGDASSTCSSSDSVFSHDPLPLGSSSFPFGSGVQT

FGFR1/FGFR3 [1]	FGFR1/FGFR4 [2, 3]	FGFR2/FGFR4 [2, 3]	FGFR3/FGFR4 [2, 3]	FGFR4/FGFR3 [1]	Compound	FGFR1/FGFR4 [2, 4]	FGFR2/FGFR4 [2, 4]	FGFR3/FGFR4 [2, 4]
	>25	>25	>10		COc1cc(OC)c(F)c(N2Cc3cnc(-c4cc(N)ccc4C#N)cc3C3(CC3)C2=O)c1F [Example 3, 4-amino-2-(2′-(2,6-difluoro-3,5-dimethoxyphenyl)-3′-oxo-2′,3′-dihydro-1′H-spiro[cyclopropane-1,4′-[2,7]naphthyridine]-6′-yl)benzonitrile]	>25	>25	>25
	>50	>25	>10		COc1cc(OC)c(F)c(N2Cc3cnc(-c4nn(C)cc4C#N)cc3C3(CC3)C2=O)c1F [Example 172, 3-(2′-(2,6-difluoro-3,5-dimethoxyphenyl)-3′-oxo-2′,3′-dihydro-1′H-spiro[cyclopropane-1,4′-[2,7]naphthyridine]-6′-yl)-1-methyl-1H-pyrazole-4-carbonitrile]			
	>25	>25	>25		COc1cc(OC)c(F)c(N2Cc3cnc(-c4cc(N)ccc4C)cc3C3(CC3)C2=O)c1F [Example 1, 6′-(5-amino-2-methylphenyl)-2′-(2,6-difluoro-3,5-dimethoxyphenyl)-1^1H-spiro[cyclopropane-1,4′-[2,7]naphthyridin]-3′(2′H)-one]	>25	>25	>50
	>10	>10	>10		COc1cc(OC)c(F)c(N2Cc3cnc(-c4cc(N)c(F)cc4C)cc3C3(CC3)C2=O)c1F [Example 2, 6′-(5-amino-4-fluoro-2-methylphenyl)-2′-(2,6-difluoro-3,5-dimethoxyphenyl)-1′H-spiro[cyclopropane-1,4′-[2,7]naphthyridin]-3′(2′H)-one]	>10	>10	>10
	>100	>100	>50		COc1cc(OC)c(F)c(N2Cc3cnc(-c4nn(CC5CCOCC5)cc4C#N)cc3C3(CC3)C2=O)c1F [Example 173, 3-(2′-(2,6-difluoro-3,5-dimethoxyphenyl)-3′-oxo-2′,3′-dihydro-1′H-spiro[cyclopropane-1,4′-[2,7]naphthyridine]-6′-yl)-1-((tetrahydro-2H-pyran-4-yl)methyl)-1H-pyrazole-4-carbonitrile]			
	>100	>10	>25		COc1cc(OC)c(F)c(N2Cc3cnc(-c4nn(CC#N)cc4C#N)cc3C3(CC3)C2=O)c1F [Example 174, 1-(cyanomethyl)-3-(2′-(2,6-difluoro-3,5-dimethoxyphenyl)-3′-oxo-2′,3′-dihydro-1′H-spiro[cyclopropane-1,4′-[2,7]naphthyridine]-6′-yl)-1H-pyrazole-4-carbonitrile]			
	>10	>10	>10		COc1cc(OC)c(F)c(N2Cc3cnc(-c4[nH]ncc4C#N)cc3C3(CC3)C2=O)c1F [Example 171, 5-(2′-(2,6-difluoro-3,5-dimethoxyphenyl)-3′-oxo-2′,3′-dihydro-1′H-spiro[cyclopropane-1,4′-[2,7]naphthyridine]-6′-yl)-1H-pyrazole-4-carbonitrile]			
>10				>5	COc1cc(OC)c(F)c(N2Cc3cnc(-c4cn(CCCN5CCOCC5)nc4C)cc3C3(CC3)C2=O)c1F [Example 146, 2′-(2,6-difluoro-3,5-dimethoxyphenyl)-6′-(3-methyl-1-(3-morpholinopropyl)-1H-pyrazol-4-yl)-1′H-spiro[cyclopropane-1,4′-[2,7]naphthyridin]-3′(2′H)-one]			
>5				>5	CCN1C(=O)N(c2c(F)c(OC)cc(OC)c2F)Cc2cnc(-c3ccc(C(N)=O)nc3)cc21 [Example 184, 5-(3-(2,6-difluoro-3,5-dimethoxyphenyl)-1-ethyl-2-oxo-1,2,3,4-tetrahydropyrido[4,3-d]pyrimidin-7-yl)picolinamide]			
>10				>5	CCNC(=O)c1ccc(-c2cc3c(cn2)CN(c2c(F)c(OC)cc(OC)c2F)C(=O)N3CC)cn1 [Example 175, 5-(3-(2,6-difluoro-3,5-dimethoxyphenyl)-1-ethyl-2-oxo-1,2,3,4-tetrahydropyrido[4,3-d]pyrimidin-7-yl)-N-ethylpicolinamide]			
>5				>10	COc1cc(OC)c(F)c(N2Cc3cnc(-c4cn(C)nc4C)cc3N(Cc3csc(C)n3)C2=O)c1F [Example 95, 3-(2,6-difluoro-3,5-dimethoxyphenyl)-7-(1,3-dimethyl-1H-pyrazol-4-yl)-1-((2-methylthiazol-4-yl)methyl)-3,4-dihydropyrido[4,3-d]pyrimidin-2(1H)-one]			
>5				>5	COc1cc(OC)c(F)c(N2Cc3cnc(-c4csc(N(C)C)n4)cc3C3(CC3)C2=O)c1F [Example 160, 2′-(2,6-difluoro-3,5-dimethoxyphenyl)-6′-(2-(dimethylamino)thiazol-4-yl)-1′H-spiro[cyclopropane-1,4′-[2,7]naphthyridin]-3′(2′H)-one]			
>5				>5	COc1cc(OC)c(F)c(N2Cc3cnc(-c4cn(C)nc4C)cc3N(Cc3ccnc(C)c3)C2=O)c1F [Example 68, 3-(2,6-difluoro-3,5-dimethoxyphenyl)-7-(1,3-dimethyl-1H-pyrazol-4-yl)-1-((2-methylpyridin-4-yl)methyl)-3,4-dihydropyrido[4,3-d]pyrimidin-2(1H)-one]			
>5				>5	CCN1C(=O)N(c2c(F)c(OC)cc(OC)c2F)Cc2cnc(-c3ccc(CC#N)cc3)cc21 [Example 180, 2-(4-(3-(2,6-difluoro-3,5-dimethoxyphenyl)-1-ethyl-2-oxo-1,2,3,4-tetrahydropyrido[4,3-d]pyrimidin-7-yl)phenyl)acetonitrile]			
>5					CCN1C(=O)N(c2c(F)c(OC)cc(OC)c2F)Cc2cnc(-c3cccnc3)cc21 [Example 23, 3-(2,6-difluoro-3,5-dimethoxyphenyl)-1-ethyl-7-(pyridin-3-yl)-3,4-dihydropyrido[4,3-d]pyrimidin-2(1H)-one]			
>5				>5	COc1cc(OC)c(F)c(N2Cc3cnc(-c4cn(C)nc4C)cc3N(Cc3ccc(C#N)nc3)C2=O)c1F [Example 74, 5-((3-(2,6-difluoro-3,5-dimethoxyphenyl)-7-(1,3-dimethyl-1H-pyrazol-4-yl)-2-oxo-3,4-dihydropyrido[4,3-d]pyrimidin-1(2H)-yl)methyl)picolinonitrile]			
>1				>5	COc1cc(OC)c(F)c(N2Cc3cnc(-c4cn(C)nc4C)cc3N(c3ccc4ncsc4c3)C2=O)c1F [Example 41, 1-(1,3-benzothiazol-6-yl)-3-(2,6-difluoro-3,5-dimethoxyphenyl)-7-(1,3-dimethyl-1H-pyrazol-4-yl)-3,4-dihydropyrido[4,3-d]pyrimidin-2(1H)-one]			
>3				>5	COc1cnc(N2C(=O)N(c3c(F)c(OC)cc(OC)c3F)Cc3cnc(-c4cn(C)nc4C)cc32)cn1 [Example 112, 3-(2,6-difluoro-3,5-dimethoxyphenyl)-7-(1,3-dimethyl-1H-pyrazol-4-yl)-1-(5-methoxypyrazin-2-yl)-3,4-dihydropyrido[4,3-d]pyrimidin-2(1H)-one]			
>5				>1	COc1cc(OC)c(F)c(N2Cc3cnc(-c4cn(CCC#N)nc4C)cc3C3(CC3)C2=O)c1F [Example 156, 3-(4-(2′-(2,6-difluoro-3,5-dimethoxyphenyl)-3′-oxo-2′,3′-dihydro-1′H-spiro[cyclopropane-1,4′-[2,7]naphthyridine]-6′-yl)-3-methyl-1H-pyrazol-1-yl)propanenitrile]			
>5				>3	COc1cc(OC)c(F)c(N2Cc3cnc(-c4cn(CC#N)nc4C)cc3C3(CC3)C2=O)c1F [Example 153, 2-(4-(2′-(2,6-difluoro-3,5-dimethoxyphenyl)-3′-oxo-2′,3′-dihydro-1′H-spiro[cyclopropane-1,4′-[2,7]naphthyridine]-6′-yl)-3-methyl-1H-pyrazol-1-yl)acetonitrile]			

Compound	FGFR1/FGFR3 [1]	FGFR1/FGFR4 [2, 3]	FGFR2/FGFR4 [2, 3]	FGFR3/FGFR4 [2, 3]	FGFR4/FGFR3 [1]	FGFR1/FGFR4 [2, 4]	FGFR2/FGFR4 [2, 4]	FGFR3/FGFR4 [2, 4]
COc1cc(OC)c(F)c(N2Cc3cnc(-c4cncc(Cl)c4)cc3C3(CC3)C2=O)c1F [Example 11, 6′-(5-chloropyridin-3-yl)-2′-(2,6-difluoro-3,5-dimethoxyphenyl)-1′H-spiro[cyclopropane-1,4′-[2,7]naphthyridin]-3′(2′H)-one]	>1	>25	>25	>10		>50	>20	>25
COc1cc(OC)c(F)c(N2Cc3cnc(-c4cncc(-n5ccnc5)c4)cc3C3(CC3)C2=O)c1F [Example 12, 6′-(5-(1H-imidazol-1-yl)pyridin-3-yl)-2′-(2,6-difluoro-3,5-dimethoxyphenyl)-1′H-spiro[cyclopropane-1,4′-[2,7]naphthyridin]-3′(2′H)-one]	>3	>50	>25	>10		>50	>25	>20
COc1cc(OC)c(F)c(N2Cc3cnc(-c4cncc(F)c4)cc3C3(CC3)C2=O)c1F [Example 5, 2′-(2,6-difluoro-3,5-dimethoxyphenyl)-6′-(5-fluoropyridin-3-yl)-1′H-spiro[cyclopropane-1,4′-[2,7]naphthyridin]-3′(2′H)-one]	>3	>10	>5	>1		>10	>5	>4
